Test results: patent US5840747A, “Calcium channel antagonists” (Eli Lilly and Company, priority 1995, dated 1998)
“Also recorded” adds a separate entry of the source.

Columns and labels:
Type in all cases: cell-based
rat aorta [1] = experiment: Contractile responses of rat aortic rings to norepinephrine, serotonin and U46619 (isolated organ bath); conditions: for inhibitory effect on contractile responses to norepinephrine, serotonin, and U46619: summary in discussion; for dependence of the inhibition of contractile responses on the endothelium: rat aortic rings with versus without intact endothelium
Text: Male Wistar rats (250-350 g; Charles River Laboratories, Portage, Mich.) were sacrificed by cervical dislocation. The aorta was removed and cleaned of extraneous tissue and cut into ring segments, each approximately 4-5 mm long. In some tissues, endothelium was removed by rotating the ring segment around the tip of a forceps 10 times. Lack of tissue relaxation to acetylcholine (10^-6 M) after contraction with norepinephrine (10^-7 M) was used as evidence for denuded endothelium. […] Tissues were placed under an optimal force of 4 grams and equilibrated for one hour with washes every 15 minutes. […] All tissues were initially challenged with KCl (67 mM) to establish viability. Concentration-response curves were generated in a cumulative fashion and are reported as a percentage of an initial KCl contraction (67 mM) produced in each tissue. Vehicle, β-estradiol, 14 or 16 were added to the tissues 60 minutes prior to initiating the concentration-response curves to agonists. […] Only one agonist concentration-response curve was generated in each tissue. All results are expressed as mean±SE where n represents the number of rings examined.

[2] = target: T1, calcium channels in vascular tissue (Rattus norvegicus, UniProt P22002); experiment: Contractile response of rat aorta to the calcium agonist BayK 8644; conditions: for inhibition of the contraction to BayK 8644: absence of an intact endothelium, 10 mM KCl prior to BayK 8644 (FIGS. 7 and 8)
T1 construct: BayK 8644-induced contraction
T1 sequence (P22002 whole entry): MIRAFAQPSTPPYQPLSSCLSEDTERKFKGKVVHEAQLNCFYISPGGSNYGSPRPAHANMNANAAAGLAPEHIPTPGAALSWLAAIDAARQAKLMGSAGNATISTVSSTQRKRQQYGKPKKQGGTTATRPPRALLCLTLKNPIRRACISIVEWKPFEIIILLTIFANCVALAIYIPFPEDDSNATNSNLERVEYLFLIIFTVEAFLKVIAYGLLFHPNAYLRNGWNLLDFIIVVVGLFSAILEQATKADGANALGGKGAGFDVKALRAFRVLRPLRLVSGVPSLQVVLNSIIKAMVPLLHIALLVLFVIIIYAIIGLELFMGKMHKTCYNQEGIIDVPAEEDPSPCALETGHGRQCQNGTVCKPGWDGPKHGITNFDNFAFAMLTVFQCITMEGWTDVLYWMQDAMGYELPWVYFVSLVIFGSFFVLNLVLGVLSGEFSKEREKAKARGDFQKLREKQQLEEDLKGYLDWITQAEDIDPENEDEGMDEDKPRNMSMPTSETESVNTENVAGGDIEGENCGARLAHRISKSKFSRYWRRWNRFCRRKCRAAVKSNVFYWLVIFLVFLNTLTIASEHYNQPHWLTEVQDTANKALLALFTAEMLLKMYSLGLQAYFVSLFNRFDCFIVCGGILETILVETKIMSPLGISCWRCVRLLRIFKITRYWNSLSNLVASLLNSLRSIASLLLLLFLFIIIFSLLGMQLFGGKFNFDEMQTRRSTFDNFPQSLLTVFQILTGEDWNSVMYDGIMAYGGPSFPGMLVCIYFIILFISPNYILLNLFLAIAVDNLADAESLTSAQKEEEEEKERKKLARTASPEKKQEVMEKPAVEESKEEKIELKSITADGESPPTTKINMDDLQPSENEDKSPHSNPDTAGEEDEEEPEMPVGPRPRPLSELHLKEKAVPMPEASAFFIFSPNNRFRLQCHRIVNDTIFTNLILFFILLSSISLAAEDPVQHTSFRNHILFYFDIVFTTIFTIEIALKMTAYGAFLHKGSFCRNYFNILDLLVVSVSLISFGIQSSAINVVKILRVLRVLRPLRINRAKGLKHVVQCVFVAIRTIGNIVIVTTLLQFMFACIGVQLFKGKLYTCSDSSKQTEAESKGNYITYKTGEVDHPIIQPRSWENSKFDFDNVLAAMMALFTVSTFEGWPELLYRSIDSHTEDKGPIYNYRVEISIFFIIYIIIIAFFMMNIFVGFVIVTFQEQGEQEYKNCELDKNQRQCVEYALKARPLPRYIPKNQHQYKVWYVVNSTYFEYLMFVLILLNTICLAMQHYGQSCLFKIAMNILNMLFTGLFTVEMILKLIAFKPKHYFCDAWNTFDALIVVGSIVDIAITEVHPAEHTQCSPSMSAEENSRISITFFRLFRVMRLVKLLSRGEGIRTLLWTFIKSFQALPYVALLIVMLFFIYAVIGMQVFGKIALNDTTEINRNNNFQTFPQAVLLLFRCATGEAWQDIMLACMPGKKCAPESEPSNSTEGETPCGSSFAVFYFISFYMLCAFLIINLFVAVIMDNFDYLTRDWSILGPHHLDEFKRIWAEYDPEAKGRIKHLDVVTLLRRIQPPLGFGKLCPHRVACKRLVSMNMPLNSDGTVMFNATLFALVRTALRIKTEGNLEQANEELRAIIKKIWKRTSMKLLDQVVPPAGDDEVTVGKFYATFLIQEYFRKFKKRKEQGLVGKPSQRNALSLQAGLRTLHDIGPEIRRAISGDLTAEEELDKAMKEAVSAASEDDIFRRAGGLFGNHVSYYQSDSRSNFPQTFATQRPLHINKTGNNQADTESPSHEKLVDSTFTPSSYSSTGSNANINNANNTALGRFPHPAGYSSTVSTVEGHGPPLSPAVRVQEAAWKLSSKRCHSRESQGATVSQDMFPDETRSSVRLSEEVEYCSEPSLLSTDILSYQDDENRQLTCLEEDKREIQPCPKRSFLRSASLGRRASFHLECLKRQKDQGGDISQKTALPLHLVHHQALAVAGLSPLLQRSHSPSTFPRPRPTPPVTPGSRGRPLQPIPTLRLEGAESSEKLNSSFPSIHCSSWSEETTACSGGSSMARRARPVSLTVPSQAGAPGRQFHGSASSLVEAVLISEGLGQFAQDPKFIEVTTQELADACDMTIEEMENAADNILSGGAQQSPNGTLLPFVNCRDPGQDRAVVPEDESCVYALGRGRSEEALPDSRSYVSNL
Text: (§1) Male Wistar rats (250-350 g; Charles River Laboratories, Portage, Mich.) were sacrificed by cervical dislocation. The aorta was removed and cleaned of extraneous tissue and cut into ring segments, each approximately 4-5 mm long. In some tissues, endothelium was removed by rotating the ring segment around the tip of a forceps 10 times. Lack of tissue relaxation to acetylcholine (10^-6 M) after contraction with norepinephrine (10^-7 M) was used as evidence for denuded endothelium. Tissues with an intact endothelium relaxed to acetylcholine with 88.5±1.6% (n-11) relaxation.
Ring segments were placed between two stainless steel hooks and mounted in isolated organ baths containing 10 ml of modified Krebs' bicarbonate buffer of the following composition (mM): NaCl, 118.2; KCl, 4.6' CaCl2.2H2 O, 1.6; KH2 PO4, 1.2; MgSO4, 1.2; glucose, 10; and NaHCO3, 24.8. Organ bath solutions were aerated with 95% O2 /5% CO2 and maintained at 37° C. Tissues were placed under an optimal force of 4 grams and equilibrated for one hour with washes every 15 minutes. Changes in force were recorded and analyzed by a Biopac MP100 (World Precision Instruments, Sarasota, Fla.) data acquisition system via Sensotec (model MBL 5514-02) transducers (Sensotec Inc. Columbus, Ohio).
All tissues were initially challenged with KCl (67 mM) to establish viability. Concentration-response curves were generated in a cumulative fashion and are reported as a percentage of an initial KCl contraction (67 mM) produced in each tissue. Vehicle, β-estradiol, 14 or 16 were added to the tissues 60 minutes prior to initiating the concentration-response curves to agonists. In studies with BayK 8644, tissues were exposed to 10 mM KCl prior to initiating the concentration-response curves for BayK 8644. Only one agonist concentration-response curve was generated in each tissue. All results are expressed as mean±SE where n represents the number of rings examined. […]

rat aorta [3] = experiment: Endothelium integrity: relaxation to acetylcholine after contraction with norepinephrine; conditions: acetylcholine 10^-6 M after contraction with norepinephrine 10^-7 M, tissues with intact endothelium, n-11
Text: as §1

[4] = 10^-6 and 10^-5 M, rat aorta with and without intact endothelium, added 60 minutes prior to agonist

Row | Compound | inhibition of contractile responses to serotonin (rat aorta [1]; rat aorta with and without intact endothelium (FIG. 4), concentration not given) | inhibition of serotonin response compared with norepinephrine response (rat aorta [1]; rat aorta with and without intact endothelium (FIGS. 4 and 5)) | inhibitory effect on contractile responses to norepinephrine, serotonin, and U46619 (rat aorta [1]; rat aorta) | dependence of the inhibition of contractile responses on the endothelium (rat aorta [1]) | inhibition of the contraction to BayK 8644 [2] | percent relaxation to acetylcholine at 1 µM (rat aorta [3]) [%] | inhibition of contractile response to U46619 (rat aorta [1]; [4]) | inhibition of contractile response to norepinephrine (rat aorta [1]; [4]) | inhibition of contractile response to serotonin (rat aorta [1]; [4]) | potency in inhibiting contraction to serotonin relative to norepinephrine or U46619 (rat aorta [1]; rat aorta) | relative potency as calcium channel antagonist ([2]; comparison between substances)
1 | O=C(c1ccc(OCCN2CCCCC2)cc1)c1c(-c2ccc(O)cc2)sc2cc(O)ccc12 [Compound 14, 6-hydroxy-2-(4-hydroxyphenyl)-3-[4-(2-piperidinoethoxy)benzoyl]benzo[b]thiophene] | inhibited | greater than with norepinephrine | marked inhibitory effect | independent of an intact endothelium | inhibition of the contraction to BayK 8644 occurred |  |  |  |  |  | 
2 | CC(=O)OCC[N+](C)(C)C [acetylcholine] |  |  |  |  |  | 88.5 ± 1.6 |  |  |  |  | 
3 | O=C(c1ccc(OCCN2CCCC2)cc1)c1c(-c2ccc(O)cc2)sc2cc(O)ccc12 [Compound 16, 6-hydroxy-2-(4-hydroxyphenyl)-3-[4-(2-pyrrolidinoethoxy)benzoyl]benzo[b]thiophene] |  |  | marked inhibitory effect | appeared independent of the endothelium | inhibition of the contraction to BayK 8644 occurred |  | potently inhibited | potently inhibited | potently inhibited | more potent in inhibiting the contractile response to serotonin relative to norepinephrine or U46619 | considerably more potent as a calcium channel antagonist than 14; also recorded: more potent calcium channel antagonist in vascular tissue than estrogen
